Measured values reported in US12472193B2, “Methods and compositions for treating and preventing respiratory related diseases and conditions with xylitol-headgroup lipid analogs” (National Jewish Health, priority 2017, dated 2025).
“Also recorded” adds a separate entry of the source.

What was measured:
[1] = target: T1, TLR 2/1 (Mus musculus, UniProt Q9EPQ1+Q9QUN7); assay: Pam3Cys-induced TNFα release by RAW264.7 cells (TLR 2/1 antagonism); format: cell-based; conditions: for suppression of TLR 2/1 activation (TNFα release): Pam3Cys, 4 hours; for TLR2/1 antagonist activity: reduction in cytokine secretion vs activating TLR ligand alone
T1 construct: endogenous in cells; host or cells: RAW264.7 (ATCC)
Method: The mouse macrophage cell line, RAW264.7, was obtained from ATCC and maintained in DMEM, supplemented with 10% bovine growth serum and 1× penicillin streptomycin. Cells were maintained at 37° C. with 5% carbon dioxide: 95% air atmosphere within the incubator. Experiments were completed in a 96-well plate where cells were seated at a density of 1×10^5 cells per well, 24 prior to stimulation with TLR agonists and antagonists. Lipids were dried under a stream of nitrogen, hydrated with phosphate-buffered saline (PBS) at 37° C. for one hour, followed by water bath sonication to create liposomes. Each condition for cell stimulation and antagonism was prepared in DMEM in a separate tube and consisted of: control, TLR agonist, TLR agonist+lipid, and lipid alone. 100 μL aliquots of medium+agonists+antagonists were added to each well and incubated at 37° C. for 4 hours. Subsequently, the media were collected, diluted and an enzyme-linked immunosorbent assay (ELISA) was performed to quantify TNFα release by cells.
The ability of xylitol lipid analogs to suppress the activation of TLR 2 heterodimers was assessed. Pam3Cys was used to selectively stimulate TLR 2/1 signaling in RAW264.7 cells and MALP-2 was used as a TLR 2/6 selective agonist also in RAW264.7 cells. RAW264.7 cells were stimulated with Pam3Cys in the absence, or presence of PX lipids for 4 hours. Following incubation, media were collected, diluted and analyzed for TNFα release as a consequence of TLR activation. Results for analog activity against TLR 2/1 activation was assessed at two concentrations of phospholipid and are summarized in FIGS. 4A and 4B.
Initially, activity of xylitol lipid analogs was assessed at 100 μg/mL and it was unclear whether there was a real antagonist effect especially when compared to POPG. Experiments were repeated with a 200 μg/mL concentration of lipid to determine the ability of PX lipids to suppress TLR 2/1 activation in the presence of Pam3Cys. […] DPPX could have an effect on TLR 2/1 signaling at high concentrations.

[2] = target: T2, TLR 4 (Mus musculus, UniProt Q9JHF9+Q9QUK6); assay: LPS-induced TNF-α secretion by RAW264.7 cells (TLR 4 antagonism); format: cell-based; conditions: reduction in cytokine secretion vs activating TLR ligand alone
T2 construct: LPS was added to RAW264.7 cells at 10 ng/mL in the absence or presence of 50 μg/mL of lipid; endogenous in cells; host or cells: RAW264.7 (ATCC)
T2 sequence (Q9QUK6 26-835): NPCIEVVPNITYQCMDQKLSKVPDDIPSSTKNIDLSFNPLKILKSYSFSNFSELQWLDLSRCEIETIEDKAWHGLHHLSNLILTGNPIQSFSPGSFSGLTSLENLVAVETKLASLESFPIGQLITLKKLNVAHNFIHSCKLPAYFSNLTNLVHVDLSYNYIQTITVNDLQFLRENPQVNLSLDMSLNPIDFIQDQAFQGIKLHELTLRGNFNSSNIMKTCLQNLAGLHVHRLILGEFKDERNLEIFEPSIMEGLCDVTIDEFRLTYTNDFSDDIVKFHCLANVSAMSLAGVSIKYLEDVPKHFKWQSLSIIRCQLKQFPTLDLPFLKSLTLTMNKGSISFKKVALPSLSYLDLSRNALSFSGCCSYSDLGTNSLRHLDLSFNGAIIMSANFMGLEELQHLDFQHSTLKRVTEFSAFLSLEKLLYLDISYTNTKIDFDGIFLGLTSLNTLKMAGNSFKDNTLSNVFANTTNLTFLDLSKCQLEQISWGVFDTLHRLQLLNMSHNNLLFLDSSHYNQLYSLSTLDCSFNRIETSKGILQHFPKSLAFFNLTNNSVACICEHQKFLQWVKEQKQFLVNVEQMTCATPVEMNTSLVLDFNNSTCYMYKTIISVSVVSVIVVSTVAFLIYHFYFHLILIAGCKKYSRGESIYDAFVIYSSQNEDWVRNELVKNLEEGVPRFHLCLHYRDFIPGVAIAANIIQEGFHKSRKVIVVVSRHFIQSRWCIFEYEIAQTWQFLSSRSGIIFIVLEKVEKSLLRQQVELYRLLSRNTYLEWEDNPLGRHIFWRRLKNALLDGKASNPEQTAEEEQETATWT
T2 sequence (Q9JHF9 19-160): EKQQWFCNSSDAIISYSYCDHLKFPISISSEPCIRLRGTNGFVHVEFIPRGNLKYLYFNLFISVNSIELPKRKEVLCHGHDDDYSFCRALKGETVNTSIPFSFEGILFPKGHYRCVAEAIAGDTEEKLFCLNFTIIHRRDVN

T1 sequence (Q9QUN7 25-784): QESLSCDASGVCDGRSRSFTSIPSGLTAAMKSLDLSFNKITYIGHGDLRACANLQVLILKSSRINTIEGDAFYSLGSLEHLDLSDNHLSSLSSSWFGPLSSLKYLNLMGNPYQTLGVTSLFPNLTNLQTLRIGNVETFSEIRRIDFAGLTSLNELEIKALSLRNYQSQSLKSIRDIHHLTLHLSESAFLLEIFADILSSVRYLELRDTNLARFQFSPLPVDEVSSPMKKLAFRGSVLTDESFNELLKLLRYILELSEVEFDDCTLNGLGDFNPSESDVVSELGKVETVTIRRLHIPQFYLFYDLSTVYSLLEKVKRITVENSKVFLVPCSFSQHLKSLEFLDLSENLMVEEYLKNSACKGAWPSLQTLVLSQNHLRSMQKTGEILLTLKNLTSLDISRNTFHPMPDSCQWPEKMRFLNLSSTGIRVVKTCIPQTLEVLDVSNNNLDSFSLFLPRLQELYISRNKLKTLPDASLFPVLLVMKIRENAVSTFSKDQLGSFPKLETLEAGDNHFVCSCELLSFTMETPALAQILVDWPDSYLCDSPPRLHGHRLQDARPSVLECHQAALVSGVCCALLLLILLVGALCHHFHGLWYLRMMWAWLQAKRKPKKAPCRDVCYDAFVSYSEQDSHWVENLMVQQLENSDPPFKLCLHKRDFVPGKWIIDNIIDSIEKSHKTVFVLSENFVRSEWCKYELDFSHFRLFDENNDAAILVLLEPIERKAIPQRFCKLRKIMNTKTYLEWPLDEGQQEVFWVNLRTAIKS
T1 sequence (Q9EPQ1 25-795 limits assumed): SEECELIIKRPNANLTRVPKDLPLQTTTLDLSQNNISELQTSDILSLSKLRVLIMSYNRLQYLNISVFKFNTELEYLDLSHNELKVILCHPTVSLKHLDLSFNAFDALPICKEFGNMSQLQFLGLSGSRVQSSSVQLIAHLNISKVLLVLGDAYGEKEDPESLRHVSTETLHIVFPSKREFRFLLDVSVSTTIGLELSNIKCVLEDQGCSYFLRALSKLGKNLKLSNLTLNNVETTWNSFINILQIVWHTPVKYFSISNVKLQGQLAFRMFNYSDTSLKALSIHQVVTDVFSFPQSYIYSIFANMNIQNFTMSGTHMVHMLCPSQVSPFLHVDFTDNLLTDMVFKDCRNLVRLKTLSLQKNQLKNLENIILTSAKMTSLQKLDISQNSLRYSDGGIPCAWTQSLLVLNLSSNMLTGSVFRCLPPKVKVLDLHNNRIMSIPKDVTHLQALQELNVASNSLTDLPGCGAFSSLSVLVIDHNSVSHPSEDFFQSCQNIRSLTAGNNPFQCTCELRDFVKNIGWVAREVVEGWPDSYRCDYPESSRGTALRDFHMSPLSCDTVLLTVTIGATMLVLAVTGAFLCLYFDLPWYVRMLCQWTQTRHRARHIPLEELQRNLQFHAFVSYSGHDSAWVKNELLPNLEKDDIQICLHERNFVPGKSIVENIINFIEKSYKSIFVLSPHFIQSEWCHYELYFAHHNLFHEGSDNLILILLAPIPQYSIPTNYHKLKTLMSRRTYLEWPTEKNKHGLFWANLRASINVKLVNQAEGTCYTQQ

SMILES | suppression of TLR 2/1 activation (TNFα release) ([1]; 100 μg/mL lipid) | suppression of TLR 2/1 activation (TNFα release) ([1]; 200 μg/mL lipid) | TLR2/1 antagonist activity [1] | TLR2 antagonist activity [2] | suppression of TLR 2/1 activation (TNFα release) ([1]; 200 μg/mL lipid, listed as 18:2 DEPX)
CCCCCCCCCCCCCCOC[C@H](COP(=O)(O)OCC(O)C(O)C(O)CO)OCCCCCCCCCCCCCC (mixture of isomers) [14:0 DEPX, sn-1-O-myristyl, sn-2-O-myristyl sn-3 glycerol phosphoxylitol] | modest antagonists | inhibit TLR2/1 activation to almost the same extent as the bioactive lipid POPG; also recorded: strongly suppressed; also recorded: suppressed TLR 2/1 activation | + (cutoff being greater than a 50% reduction in cytokine secretion compared to activating TLR ligand alone) | + (cutoff being greater than a 50% reduction in cytokine secretion compared to activating TLR ligand alone) | 
CCCCCCC=CCCCCCCCC(=O)OCC(COP(=O)(O)OCC(O)C(O)C(O)CO)OC(=O)CCCCCCCC=CCCCCCC (mixture of isomers) [16:1 DPPX, sn-1-palmitoleoyl, sn-2-palmitoleoyl sn-3 glycerol phosphoxylitol] | did not appear to suppress activation | inhibit TLR2/1 activation to almost the same extent as the bioactive lipid POPG; also recorded: strongly suppressed; also recorded: suppressed TLR 2/1 activation | + (cutoff being greater than a 50% reduction in cytokine secretion compared to activating TLR ligand alone) | + (cutoff being greater than a 50% reduction in cytokine secretion compared to activating TLR ligand alone) | 
CCCCCCCCC=CCCCCCCCCOCC(COP(=O)(O)OCC(O)C(O)C(O)CO)OCCCCCCCCC=CCCCCCCCC (mixture of isomers) [18:1 DEPX, sn-1-O-octadecenyl, sn-2-O-octadecenyl sn-3 glycerol phosphoxylitol] | modest antagonists | inhibit TLR2/1 activation to almost the same extent as the bioactive lipid POPG; also recorded: strongly suppressed; also recorded: suppressed TLR 2/1 activation | + (cutoff being greater than a 50% reduction in cytokine secretion compared to activating TLR ligand alone) | + (cutoff being greater than a 50% reduction in cytokine secretion compared to activating TLR ligand alone) | 
CCCCCC=CCC=CCCCCCCCC(=O)OCC(COP(=O)(O)OCC(O)C(O)C(O)CO)OC(=O)CCCCCCCC=CCC=CCCCCC (mixture of isomers) [18:2 DLPX, sn-1-linoleoyl, sn-2-linoleoyl sn-3 glycerol phosphoxylitol] | modest antagonists | strongly suppressed; also recorded: suppressed TLR 2/1 activation | + (cutoff being greater than a 50% reduction in cytokine secretion compared to activating TLR ligand alone) | + (cutoff being greater than a 50% reduction in cytokine secretion compared to activating TLR ligand alone) | inhibit TLR2/1 activation to almost the same extent as the bioactive lipid POPG
CCCCCCCCCCCCCC(=O)OC[C@H](COP(=O)(O)OCC(O)C(O)C(O)CO)OC(=O)CCCCCCCCCCCCC (mixture of isomers) [DMPX, sn-1-myristoyl, sn-2-myristoyl sn-3 glycerol phosphoxylitol] | ineffective at both concentrations | not effective antagonists |  | + (cutoff being greater than a 50% reduction in cytokine secretion compared to activating TLR ligand alone) | 
CCCCCCCCC=CCCCCCCCC(=O)OCC(COP(=O)(O)OCC(O)C(O)C(O)CO)OC(=O)CCCCCCCC=CCCCCCCCC (mixture of isomers) [DOPX, sn-1-oleoyl, sn-2-oleoyl sn-3 glycerol phosphoxylitol] | modest antagonists | inhibit TLR2/1 activation to almost the same extent as the bioactive lipid POPG; also recorded: strongly suppressed; also recorded: suppressed TLR 2/1 activation | + (cutoff being greater than a 50% reduction in cytokine secretion compared to activating TLR ligand alone) | + (cutoff being greater than a 50% reduction in cytokine secretion compared to activating TLR ligand alone) | 
CCCCCCCCCCCCCCCC(=O)OCC(COP(=O)(O)OCC(O)C(O)C(O)CO)OC(=O)CCCCCCCCCCCCCCC (centres unmarked) [DPPX, sn-1-palmitoyl, sn-2-palmitoyl sn-3 glycerol phosphoxylitol] |  | weakly effective |  |  | 
CCCCCCCCCCCCCCCCCC(=O)OCC(COP(=O)(O)OCC(O)C(O)C(O)CO)OC(=O)CCCCCCCCCCCCCCCCC (centres unmarked) [DSPX, sn-1-stearoyl, sn-2-stearoyl sn-3 glycerol phosphoxylitol] | ineffective at both concentrations | not effective antagonists |  |  | 
CCCCCCCC/C=C\CCCCCCCC(=O)O[C@H](COC(=O)CCCCCCCCCCCCCCC)COP(=O)([O-])OCC[N+](C)(C)C [POPC, 1-palmitoyl-2-oleoyl-sn-glycero-3-phosphocholine, reference compound] | unaffected | unaffected |  |  | 
CCCCCCCC/C=C\CCCCCCCC(=O)O[C@H](COC(=O)CCCCCCCCCCCCCCC)COP(=O)(O)OCC(O)CO (some centres unmarked) [POPG, palmitoyl-oleoyl-phosphatidylglycerol, reference compound] | markedly inhibited | markedly inhibited |  |  | 
CCCCCCCC/C=C\CCCCCCCC(=O)O[C@H](COC(=O)CCCCCCCCCCCCCCC)COP(=O)(O)OCC(O)C(O)C(O)CO (some centres unmarked) [POPX, sn-1-palmitoyl, sn-2-oleoyly sn-3 glycerol phosphoxylitol] | modest antagonists | inhibit TLR2/1 activation to almost the same extent as the bioactive lipid POPG; also recorded: strongly suppressed; also recorded: suppressed TLR 2/1 activation | + (cutoff being greater than a 50% reduction in cytokine secretion compared to activating TLR ligand alone) | + (cutoff being greater than a 50% reduction in cytokine secretion compared to activating TLR ligand alone) | 
